The values that follow come from patent publication EP1255573B1, “COMPOSITIONs comprising monoperphthalic acid useful for treating contact lens” (Novartis AG, priority 2000, dated 2001).

The nature of data set [1]: Stability of magnesium perphthalate (statement). The class given is physicochemical.
A further data set is described as follows: Solubility (statement). It is filed as physicochemical.
Data set [2] deals with L929 mammalian fibroblasts. Description: MEM toxicity test (USP standard elution cytotoxicity, trypan blue). It is filed as cell-based. The arrangement: key to toxicity, MEM level / MEM Result: 0: No cell lysis - Discrete intracytoplasmic granules; 1: Not more than 20% of cells round and loosely attached - occasional lysed cells present; 2: Not more than 50% of cells round - extensive cell lysis and empty areas between cells; 3: Not more than 70% of the cell layers contain rounded cells and/or lysed; 4: Nearly complete destruction of the cell layer. The source says:
In testing the toxicity of compounds of the compositions disclosed in solution, an MEM test procedure is used. The MEM (Minimum Essential Medium) test procedure is employed to evaluate cytoxicity using standard USP (The United States Pharmacopeial Convention) elution assays. A description of the test procedure is provided herein.
The assay provides a means of evaluating extracts of polymeric materials under direct contact conditions. This method is appropriate for high-density materials and for dose-response evaluations.
Media Preparation: 1X MEM media is prepared by mixing 100 mL Eagle's MEM (with Earl's Salts and Sodium Bicarbonate, without L-glutamine), with 10mL serum, 1 mL-glutamine solution, and 0.5 mL antibiotic solution (L-glutamine and antibiotic solutions are purchased at correct concentrations and stored frozen at -20 °C±2). Eagle's
Before use, a 4 ml aliquot of 10X trypsin is diluted 1:9 with 36 ml of Dulbecco's Phosphate Buffered Saline (PBS) to yield a 0.25% solution. Dulbecco's Saline is available from Mediatech Cellgro. Sterile 35 mm diameter petri dishes or 6 well tissue culture plates are used. Sterile serological pipets are employed in the procedure. Sterile absorbent material (e.g. Kay-Drys or similar material) is used. L929 mammalian fibroblasts (ATCC cell line CCL1, NCTC clone 929) are employed.
Overview of Method: Cell cultures are grown to a near confluent monolayer in 6 well plates (the wells are 35mm). After the test, material is extracted under various conditions (i.e. extracting medium, time, temperature) so as to allow evaluation of extract toxicity in accordance with USP procedures. These procedures define methods to be used to extract materials for in vivo or in vitro toxicity evaluations in accordance with United States Pharmacopoeia (USP). The Sodium Chloride Injection extract is diluted with serum-supplemented cell culture medium at 25% extract concentration. Each culture is examined microscopically after 48 hours using trypan blue for the presence of morphological changes, reduction in cell density or cell lysis induced by the test material.
Cell Layer Preparation: The next step is to tryptanize cells. Next, one determines cell density using standard methods to define standard cell biology methods to be used to determine and adjust the concentration of a cell suspension, i.e. cell density. Then, an adjustment is made to yield a standard cell suspension with a density of 250,000 to 350,000 cell/mL in serum supplemented MEM for L929 cells. Seed cells are placed into 6 well plates by pipetting 2 ml of the standard cell suspension into each well. […]
Exposure to Test Extracts: Exposure to test extracts is determined examining a representative prepared cell culture plate using the microscope to observe the cell monolayer for correct confluency. […]

Regarding `O.O.O.O.O.O.O=C([O-])c1ccccc1C(=O)O[O-].[Mg+2]` [magnesium perphthalate, magnesium monoperoxyphthalate hexahydrate], the stability entry in data set [1] (in aqueous solution) is given as “not stable”; in data set [1] (in solid form), “stable”. Besides, in “Solubility (statement)”, the solubility result was “freely soluble”. Also, in data set [2] (concentrations below 0.5%, generally), the “toxicity, MEM Test Result level” value was 1 (Not more than 20% of cells round and loosely attached - occasional lysed cells present). Also, the “toxicity, MEM level” value in data set [2] (concentrations of 0.5% and above, with and without saline) came to 4. In addition, the toxicity result in data set [2] (concentrations of about 0.25% and below in a chloride or other halide-containing solution) is “not toxic”. The “MEM Result” value in data set [2] (some test results at below 0.5% magnesium perphthalate) was found to be 0.
